According to patent US11759530B2, “TKI permeability enhancers” (City of Hope, priority 2014, dated 2023):
pIC50: −log10 of the molar value. Entries after “also recorded” stand apart in the source; their conditions may differ.

Tests used:
[1] = system: NIH 3T3 mouse fibroblasts; details: read-out: IC50 for TGF-b-dependent cellular growth in NIH 3T3 mouse fibroblasts; cited from earlier work
[2] = system: mink lung cells; details: read-out: IC50 for transcription activation in mink lung cells; cited from earlier work
[3] = system: CK1 (S. pombe); details: cited from earlier work
[4] = system: IP3-K; details: cited from earlier work
[5] = system: IL-1 production in human monocytes; details: read-out: IC50 for inhibiting IL-1 production in human monocytes; cited from earlier work
[6] = system: PI3-Kα and δ; details: read-out: IC50 for PI3-Kα and δ; unit given as mM; cited from earlier work
[7] = system: LNCaP cells; assay: MTS cytotoxicity assay of TKI plus AR-ASO; format: cell-based; details: 3 days, 1 uM TKI or 1 uM AR-ASO with titration of the paired drug
Description: (§1) FIG. 10: TKI synergizes AR-ASO against AR expression and the AR signal pathway. […] MTS assay of LNCaP treated for 3 days with 1 uM TKI or 1 uM AR-ASO (AR-ASO-1) in the presence of the titrations of the paired drug.

[8] = system: androgen receptor (AR full length and AR variant 7) in LNCaP, LAPC-4, 22RV1 cells; assay: Androgen receptor expression in prostate cancer cell lines; format: cell-based
Description: Panels A-C, Prostate cancer cell lines LNCaP (A), LAPC-4 (B), and 22RV1 (C) were treated with inhibitor at indicated concentrations for indicated incubation times. FL, AR full length; V7, AR variant 7.
as §1
Similar results have been obtained with Bcl-2.

[9] = system: HCT-116 EGFP-miR21 tumor microspheroids; assay: Oligo penetration into tumor microspheroids, confocal microscopy; format: cell-based, human
Description: HCT-116 cells were transfected with a plasmid that expresses EGFP under the control of mir-21. When the cells express endogenous mir-21, the expression of EGFP is silenced. These cells were grown into tumor microspheroids, which were treated with an anti-mir21 mix mer oligonucleotide under gymnotic conditions (i.e., no carriers, no conjugations). When the anti-mir21 mix mer (product of Santaris Pharma, Horsholm, Denmark) enters the cells, it prevents the binding of the endogenous mir21 to its complementary sites on the 3′UTR of the EGFP gene. EGFP is then expressed and the cells glow green. Applicants discovered, by confocal microscopy, that the penetration of the anti-mir21 into the tumor microspheroid was only approximately 3 cells deep. Applicants verified this by treating the microspheroids with a Cy5-labeled anti-Bcl-2 phosphorothioate LNA gapmer. Here again, the penetration was only about 3 cell layers deep. Applicants then wanted to increase the oligo penetration and increase the amount of EGFP produced per cell. Applicants then began to screen a library of tyrosine kinase inhibitors (TKIs). These were added (100 nm-1 uM) to the media in addition to the oligo. Applicants examined 4 TKIs: Sorafenib was ineffective. […] This work has tremendous practical utility as it provides a way of screening for active oligos in a non-animal model, and provides a way to improve oligo penetration in tumors.
The HCT-116 EGFP-miR21 stable, clonal cell line was used to create the microspheroids in 96-well hanging-drop plates (Perfecta 3D, Biometrix Inc., Ann Arbor, Mich.). Following trypsinization, the cells were lifted and re-suspended at a density of 3×10^5 cells in 300 μL DMEM (Irvine Scientific, Santa Ana, Calif., USA) supplemented with 10% fetal calf serum (Irvine Scientific), 1 mM L-glutamine, 5% non-essential amino acids. To improve the 3D structure of the spheroids, 2.5% Matrigel™ can be added to the cell seeding solution. […]
All microspheroids were incubated for additional 5 days and analyzed with a Zeiss confocal microscope. […]

[10] = system: HCT116-GFPmiR21 cells; assay: Drug screen: EGFP reactivation by anti-miR21 oligo plus compound (ASO uptake and function); format: cell-based, human; details: for TKI effect on oligo penetration and EGFP produced per cell: TKI 100 nm-1 uM added to the media in addition to the oligo; for ASO uptake (eGFP activation), FIG. 3: anti-mir21 + drug
[11] = system: HCT116-GFPmiR21 cells; assay: ASO intracellular release: anti-miR21 pretreatment, wash, then compound; format: cell-based, human; details: then drug
Description: A robotic screening of a library of tyrosine kinase inhibitors (TKIs) was performed. […] These compounds are under investigation with the aim of determining the mechanism and the lowest concentration required for maximal enhancement of ASO function. For the 14 compounds identified as active in the initial screen, EGFP reactivation was monitored every day for up to 6 days. To determine if any compound affected ASO intracellular release, cells were first treated with 1 μM anti-miR21 PS-mixmer. The next day the media was removed and cells were washed twice with PBS. After adding fresh media the cell were treated with 1 μM of each active compound. Since ASO uptake had already occurred, any enhancement of EGFP expression in active compound-treated cells would be an indication of improved ASO intracellular release.

Structure (SMILES): c1ccc(-c2n[nH]cc2-c2ccnc3ccccc23)nc1
- pIC50 [1]: 7.05
- pIC50 [2]: 7.33

Structure (SMILES): O=[N+]([O-])c1ccc(CNc2nc(NCc3cccc(C(F)(F)F)c3)nc3[nH]cnc23)cc1
- pIC50 [4]: 4.99

Structure (SMILES): CS(=O)(=O)c1ccc(-c2nc(-c3ccc(F)cc3)c(-c3ccncc3)[nH]2)cc1
- pIC50 [5]: 6.70

Structure (SMILES): O=C1NC(=O)/C(=C/c2ccc3c(c2)OC(F)(F)O3)S1
- IC50 [6]: > 0.02 mM

Structure (SMILES): O=C1Nc2cc(Br)ccc2/C1=C1/Nc2ccccc2/C1=N/O [Compound 6-BIO]
- Cytotoxicity of the combination of TKI and AR-ASO (MTS assay) [7]: did not show increased cytoxicity
- Androgen receptor downregulation ([8]; LNCaP, LAPC-4, 22RV1, AR full length and AR-V7): can downregulate both forms; also recorded: downregulates
- Synergy with AR antisense oligo against AR expression and AR signal pathway ([8]; combined with AR-ASO, LNCaP and LAPC-4, 2 days): synergistic; also recorded: synergizes

Structure (SMILES): COc1cccc2c1C(=O)c1c(O)c3c(c(O)c1C2=O)C[C@@](O)(C(=O)CO)C[C@@H]3O[C@H]1C[C@H](N)[C@H](O)[C@H](C)O1 [Doxorubicin]
- Penetration into tumor spheroids (confocal Z-stacks) ([9]; FIG. 4-6): more uniform penetration

Structure (SMILES): CNC(=O)c1cc(Oc2ccc(NC(=O)Nc3ccc(Cl)c(C(F)(F)F)c3)cc2)ccn1 [Sorafenib]
- TKI effect on oligo penetration and EGFP produced per cell [10]: ineffective
- ASO uptake (eGFP activation), FIG. 3 [10]: Decreased uptake

Structure (SMILES): Cc1ccc(NC(=O)c2ccc(CN3CCN(C)CC3)cc2)cc1Nc1nccc(-c2cccnc2)n1 [imatinib, 4-[(4-methylpiperazin-1-yl)methyl]-N-(4-methyl-3-{[4-(pyridin-3-yl)pyrimidin-2-yl]amino}phenyl)benzamide]
- ASO release (eGFP activation), FIG. 3 [11]: increased release
- ASO uptake (eGFP activation), FIG. 3 [10]: Increased uptake
- EGFP expression in tissue culture ([10]; with anti-mir21 oligo, TKI 100 nm-1 uM): dramatically increased
- Penetration of the anti-mir21 oligo in tumor microspheroids ([9]; TKI 100 nm-1 uM with oligo): increased penetration
- Penetration of the Cy5-labeled anti-Bcl-2 oligo in tumor microspheroids ([9]; TKI with oligo): increased penetration was also seen

Structure (SMILES): Cc1cn(-c2cc(NC(=O)c3ccc(C)c(Nc4nccc(-c5cccnc5)n4)c3)cc(C(F)(F)F)c2)cn1 [nilotinib, 4-methyl-N-[3-(4-methyl-1H-imidazol-1-yl)-5-(trifluoromethyl)phenyl]-3-[(4-pyridin-3-ylpyrimidin-2-yl)amino]benzamide]
- TKI effect on oligo penetration and EGFP produced per cell [10]: shown to have activity
